Data taken from paper PMC9227830, “Neuroprotective Effect of Yucca schidigera Roezl ex Ortgies Bark Phenolic Fractions, Yuccaol B and Gloriosaol A on Scopolamine-Induced Memory Deficits in Zebrafish” (Molecules, 2022).

Target: T1, Glycine max (soybean) 15-lipoxygenase (15-LOX) (Glycine max, UniProt P08170)
T1 construct: gene LOX1.1; commercial native soybean enzyme (Sigma-Aldrich)
T1 sequence (P08170 1-839): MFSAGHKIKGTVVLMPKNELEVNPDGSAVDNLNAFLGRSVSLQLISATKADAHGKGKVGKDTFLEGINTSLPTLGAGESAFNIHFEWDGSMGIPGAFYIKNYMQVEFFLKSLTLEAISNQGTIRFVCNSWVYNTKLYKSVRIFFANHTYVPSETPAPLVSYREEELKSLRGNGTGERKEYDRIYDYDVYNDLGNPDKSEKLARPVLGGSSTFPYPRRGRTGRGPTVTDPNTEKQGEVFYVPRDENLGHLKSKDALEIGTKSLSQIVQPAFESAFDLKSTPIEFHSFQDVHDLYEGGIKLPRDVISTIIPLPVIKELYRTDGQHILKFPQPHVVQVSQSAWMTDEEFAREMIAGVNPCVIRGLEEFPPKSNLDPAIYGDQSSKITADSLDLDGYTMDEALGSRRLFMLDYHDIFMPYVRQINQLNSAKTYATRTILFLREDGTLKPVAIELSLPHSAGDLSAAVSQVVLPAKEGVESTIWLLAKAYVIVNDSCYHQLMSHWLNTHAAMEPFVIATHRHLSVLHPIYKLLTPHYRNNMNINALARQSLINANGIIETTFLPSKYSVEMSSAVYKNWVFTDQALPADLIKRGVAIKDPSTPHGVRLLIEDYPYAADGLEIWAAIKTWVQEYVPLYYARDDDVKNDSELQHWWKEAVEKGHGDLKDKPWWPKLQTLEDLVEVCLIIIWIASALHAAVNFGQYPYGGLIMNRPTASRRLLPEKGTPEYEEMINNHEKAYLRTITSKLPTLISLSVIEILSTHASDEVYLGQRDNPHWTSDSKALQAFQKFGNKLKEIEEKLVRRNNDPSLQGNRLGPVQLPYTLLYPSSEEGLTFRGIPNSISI
Test: UV spectrophotometry at […] nm, linoleic acid oxidation (modified Malterud)
Type: biochemical
Details: read-out: EC50 (the source's name) (converted)

Q: `COc1c(O)cc(/C=C/c2cc(O)cc3c2[C@]2(C(=O)O3)c3c(O)cc(O)cc3O[C@H]2c2ccc(O)cc2)c2c1OC(=O)[C@]21c2c(O)cc(O)cc2O[C@H]1c1ccc(O)cc1` [GloA, gloriosaol A] was tested. Which IC50 did it give?
A: Its IC50 is 15.2 µM.

Q: `O=C1Oc2cc(O)cc(/C=C/c3ccc(O)cc3)c2[C@@]12c1c(O)cc(O)cc1O[C@H]2c1ccc(O)cc1` [YuB, yuccaol B] was tested. Which IC50 did it give?
A: Its IC50 is 19.5 µM.

Q: With `O=C1O[C@H]([C@@H](O)CO)C(O)=C1O` [vitamin C, reference compound] as the compound, how does the IC50 read?
A: The IC50 was 122 µM.
